Laboratory results reported in patent US20240398768A1, “METHODS OF TREATING SOLID TUMOR USING HETEROAROMATIC MACROCYCLIC ETHER COMPOUNDS” (Nuvalent, Inc., priority 2021, published 2024).
Like-named read-outs stand apart in the source and are kept apart here.

Assay: Phase 1/2 clinical study: pharmacokinetics
Assay type: in vivo, human
Conditions: human, plasma, oral; for Vd/F: read-out: Vz/F; for Tmax: median; for concentration at 15 day: read-out: Cmin
Text: Each cycle of treatment is 28 days.

[1] = 25 mg, Cycle 1 Day 15, 25 mg QD, geometric mean
[2] = 50 mg, Cycle 1 Day 1, 50 mg QD, geometric mean
[3] = 50 mg, Cycle 1 Day 15, 50 mg QD, geometric mean
[4] = 75 mg, Cycle 1 Day 1, 75 mg QD, geometric mean
[5] = 75 mg, Cycle 1 Day 15, 75 mg QD, geometric mean
[6] = 100 mg, Cycle 1 Day 1, 100 mg QD, geometric mean
[7] = 100 mg, Cycle 1 Day 15, 100 mg QD, geometric mean
[8] = 125 mg, Cycle 1 Day 1, 125 mg QD, geometric mean
[9] = 125 mg, Cycle 1 Day 15, 125 mg QD, single value
[10] = Cycle 1 Day 15, 25 mg QD, geometric mean
[11] = Cycle 1 Day 15, 50 mg QD, geometric mean
[12] = Cycle 1 Day 15, 75 mg QD, geometric mean
[13] = Cycle 1 Day 15, 100 mg QD, geometric mean
[14] = Cycle 1 Day 15, 125 mg QD, geometric mean

CCn1ncc2c1-c1cnc(N)c(c1)O[C@H](C)c1cc(F)ccc1-c1nn(C)nc1C2 [Compound 1, (19R)-3-ethyl-16-fluoro-10,19-dimethyl-20-oxa-3,4,9,10,11,23-hexaazapentacyclo [19.3.1.0^2,^6.0^8,^12.0^13,^18]pentacosa-1 (24),2 (6),4,8,11,13,15,17,21 (25),22-decaen-22-amine]
Cmax [1]: 250 ng/mL
Vd/F [1]: 243 L
Tmax (25 mg, Cycle 1 Day 15, 25 mg QD): 1 h
half-life (50 mg, Cycle 1 Day 1, 50 mg QD, arithmetic mean, read-out: t1/2 (converted)): 12 h
AUC(0-inf) [2]: 4090 ng·h/mL
Cmax [2]: 338 ng/mL
Vd/F [2]: 200 L
Tmax (50 mg, Cycle 1 Day 1, 50 mg QD): 1 h
half-life (50 mg, Cycle 1 Day 15, 50 mg QD, arithmetic mean, read-out: t1/2 (converted)): 16 h
AUC(0-inf) [3]: 6070 ng·h/mL
Cmax [3]: 687 ng/mL
Vd/F [3]: 228 L
Tmax (50 mg, Cycle 1 Day 15, 50 mg QD): 0.5 h
half-life (75 mg, Cycle 1 Day 1, 75 mg QD, arithmetic mean, read-out: t1/2 (converted)): 16.4 h
AUC(0-inf) [4]: 5930 ng·h/mL
Cmax [4]: 642 ng/mL
Vd/F [4]: 294 L
Tmax (75 mg, Cycle 1 Day 1, 75 mg QD): 1 h
half-life (75 mg, Cycle 1 Day 15, 75 mg QD, arithmetic mean, read-out: t1/2 (converted)): 23.6 h
AUC(0-inf) [5]: 13500 ng·h/mL
Cmax [5]: 730 ng/mL
Vd/F [5]: 350 L
Tmax (75 mg, Cycle 1 Day 15, 75 mg QD): 1 h
half-life (100 mg, Cycle 1 Day 1, 100 mg QD, arithmetic mean, read-out: t1/2 (converted)): 17 h
AUC(0-inf) [6]: 8690 ng·h/mL
Cmax [6]: 802 ng/mL
Vd/F [6]: 267 L
Tmax (100 mg, Cycle 1 Day 1, 100 mg QD): 1.5 h
AUC(0-inf) [7]: 11000 ng·h/mL
Cmax [7]: 819 ng/mL
Vd/F [7]: 261 L
Tmax (100 mg, Cycle 1 Day 15, 100 mg QD): 0.8 h
half-life (100 mg, Cycle 1 Day 15, 100 mg QD, single value, read-out: t1/2 (converted)): 16.4 h
half-life (125 mg, Cycle 1 Day 1, 125 mg QD, arithmetic mean, read-out: t1/2 (converted)): 10.1 h
AUC(0-inf) [8]: 5980 ng·h/mL
Cmax [8]: 943 ng/mL
Vd/F [8]: 304 L
Tmax (125 mg, Cycle 1 Day 1, 125 mg QD): 0.5 h
Cmax (125 mg, Cycle 1 Day 15, 125 mg QD, geometric mean): 734 ng/mL
Tmax (125 mg, Cycle 1 Day 15, 125 mg QD): 0.5 h
AUC(0-inf) [9]: 7500 ng·h/mL
Vd/F [9]: 470 L
half-life (125 mg, Cycle 1 Day 15, 125 mg QD, single value, read-out: t1/2 (converted)): 14.4 h
half-life (patients, data as of Sep. 13, 2022, read-out: half-life (converted)): ~20 h
AUC(0-t) (Cycle 1 Day 1, 25 mg QD, geometric mean): 1360 ng·h/mL
AUC(0-t) (Cycle 1 Day 1, 50 mg QD, geometric mean): 3090 ng·h/mL
AUC(0-t) (Cycle 1 Day 1, 75 mg QD, geometric mean): 4000 ng·h/mL
AUC(0-t) (Cycle 1 Day 1, 100 mg QD, geometric mean): 5720 ng·h/mL
AUC(0-t) (Cycle 1 Day 1, 125 mg QD, geometric mean): 5020 ng·h/mL
AUC [10]: 2790 ng·h/mL
concentration at 15 day [10]: 67.2 ng/mL
AUC [11]: 4300 ng·h/mL
concentration at 15 day [11]: 83.4 ng/mL
AUC [12]: 7010 ng·h/mL
concentration at 15 day [12]: 187 ng/mL
AUC [13]: 6390 ng·h/mL
concentration at 15 day [13]: 296 ng/mL
AUC [14]: 6600 ng·h/mL
concentration at 15 day [14]: 141 ng/mL
